The target of this test is T1, β-glucosidase B (BglB) (Paenibacillus polymyxa, UniProt P22505).
T1 construct: previously cloned in pET29b+, expressed in E. coli, purified by nickel IMAC; band about 50 kD
Description: Michaelis-Menten, 4-nitrophenol release at […] nm. Format: biochemical. The following applies: 0.11-100 mM substrate, readings every minute for 15 min; triplicate.

T1 sequence (P22505 whole entry): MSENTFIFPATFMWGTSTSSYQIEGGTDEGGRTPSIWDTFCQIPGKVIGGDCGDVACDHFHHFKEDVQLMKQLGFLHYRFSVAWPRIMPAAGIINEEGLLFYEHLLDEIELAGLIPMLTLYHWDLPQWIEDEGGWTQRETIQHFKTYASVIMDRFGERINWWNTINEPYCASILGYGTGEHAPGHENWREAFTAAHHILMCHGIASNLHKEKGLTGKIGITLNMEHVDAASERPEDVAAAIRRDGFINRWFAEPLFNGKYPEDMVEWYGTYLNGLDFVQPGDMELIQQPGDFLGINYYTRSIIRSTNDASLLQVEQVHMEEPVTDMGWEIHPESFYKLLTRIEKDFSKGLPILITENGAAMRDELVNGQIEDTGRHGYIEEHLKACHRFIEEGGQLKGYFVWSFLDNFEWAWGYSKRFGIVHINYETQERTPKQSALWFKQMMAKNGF

With `O=[N+]([O-])c1ccc(O[C@@H]2O[C@H](CO)[C@@H](O)[C@H](O)[C@H]2O)cc1` [pNPG, p-nitrophenyl-beta-D-glucoside], the Km was found to be 3.93 ± 0.26 mM.

The values above are taken from doi:10.1101/2025.05.22.655130v1, “Design to Data for mutants of β-glucosidase B from Paenibacillus polymyxa: L336M, L336A, L336S, L336H, D35E, D35W” (biorxiv, 2025).
